16 compounds from patent publication US9546157B2, “Asymmetric piperidinyl-substituted ureas as medicines” (Helsinn Healthcare SA, priority 2014, dated 2017) can be followed below.

Data set [1] addresses T1, GHSR1a (Homo sapiens, UniProt Q92847).
T1 construct: expressed in transfected cells; host or cells: HEK293
Kind of data set: Calcium FLIPR assay, GHSR-1a agonism. Conditions: HEK293/GHSR1a cells. Type of data set: cell-based. Also noted: Emax: unit not given here. In outline:
(§1)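 Calcium dye-loaded HEK293/GHSR1a cells were monitored by FLIPR fluorescence for 2 min after additions at t=20 s. For antagonist mode, compound was co-added with ghrelin (10 nM) and scored by lowering the ghrelin signal. Agonist mode added compound alone; EC50 and IC50 came from dose-response data.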

The nature of data set [2]: Metabolic Stability (M = Mouse). Type of data set: in vitro ADME.
In data set [3] the target is T1, GHSR1a. Kind of data set: Calcium FLIPR assay, GHSR-1a antagonism (reduction of ghrelin response). Conditions: HEK293/GHSR1a cells, ghrelin 10 nM. Type of data set: cell-based. In outline: as §1
A short description of data set [4]: Metabolic Stability (H = Human). Type of data set: in vitro ADME.

Molecules are shown by their SMILES. A value given as a limit tells only on which side of the number the result lay.

The term EC50 denotes the concentration at which the effect is half-maximal. By IC50 is commonly meant the concentration at which inhibition is half-maximal.

T1 sequence (Q92847 whole entry): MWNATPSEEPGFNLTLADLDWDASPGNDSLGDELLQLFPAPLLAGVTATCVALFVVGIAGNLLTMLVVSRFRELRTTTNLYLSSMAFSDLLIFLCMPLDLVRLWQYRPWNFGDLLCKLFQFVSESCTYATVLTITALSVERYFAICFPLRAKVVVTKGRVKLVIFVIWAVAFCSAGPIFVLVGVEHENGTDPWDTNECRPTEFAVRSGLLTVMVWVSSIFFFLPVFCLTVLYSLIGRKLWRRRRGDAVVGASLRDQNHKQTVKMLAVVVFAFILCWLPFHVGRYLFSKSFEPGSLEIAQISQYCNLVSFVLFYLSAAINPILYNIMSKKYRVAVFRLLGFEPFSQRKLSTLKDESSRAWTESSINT

As to `CC(NC(=O)N(O)C1CCN(C)CC1)c1ccc(-c2cccs2)c(Cl)c1Cl` (stereo not shown) [Compound H0627, 3-(1-(2,3-dichloro-4-(thiophen-2-yl)phenyl)ethyl)-1-hydroxy-1-(1-methylpiperidin-4-yl)urea], in data set [1], the EC50 is 1 nM and the Emax came to 5289. In addition, the “Metabolic Stability M” value in data set [2] was “High H High M”. In data set [3], the IC50 came to 4 nM. The “Metabolic Stability H” value in data set [4] is given as “High H High M”.

For `CC(NC(=O)N(C)C1CCN(C)CC1)c1ccc(CC#N)c(Cl)c1Cl` (stereo not shown) [Compound H0630, 3-(1-(2,3-dichloro-4-(cyanomethyl)phenyl)ethyl)-1-methyl-1-(1-methylpiperidin-4-yl)urea], in data set [1], the EC50 came out at 9 nM and the Emax amounted to 4714. Also, the “Metabolic Stability M” value in data set [2] is listed as “High H High M”. Further, the IC50 in data set [3] was found to be 3 nM. Moreover, the “Metabolic Stability H” value in data set [4] is reported as “High H High M”.

Regarding `CC(NC(=O)N(C)C1CCN(C)CC1)c1ccc(CO)c(Cl)c1Cl` (stereo not shown) [Compound H0633, 3-(1-(2,3-dichloro-4-(hydroxymethyl)phenyl)ethyl)-1-methyl-1-(1-methylpiperidin-4-yl)urea], in data set [1], the EC50 was found to be 15 nM. Besides, the “Metabolic Stability M” value in data set [2] is “High H High M”. In data set [3], the IC50 amounted to 3 nM. In addition, the “Metabolic Stability H” value in data set [4] was “High H High M”.

Consider `CC(NC(=O)N(C)C1CCN(C)CC1)c1ccc(-c2cncc(CO)c2)c(Cl)c1Cl` (stereo not shown) [Compound H0636, 3-(1-(2,3-dichloro-4-(5-(hydroxymethyl)pyridin-3-yl)phenyl)ethyl)-1-methyl-1-(1-methylpiperidin-4-yl)urea], for which the EC50 in data set [1] was more than 30000 nM. Further, in data set [2], the “Metabolic Stability M” value is “Medium”. The IC50 in data set [3] was found to be 90 nM. In data set [4], the “Metabolic Stability H” value was “High”.

As for `CC(NC(=O)N(C)C1CCN(C)CC1)c1ccc(-c2cncc(C(F)F)c2)c(Cl)c1Cl` (stereo not shown) [Compound H0637, 3-(1-(2,3-dichloro-4-(5-(difluoromethyl)pyridin-3-yl)phenyl)ethyl)-1-methyl-1-(1-methylpiperidin-4-yl)urea], the EC50 in data set [1] was more than 30000 nM. Moreover, the “Metabolic Stability M” value in data set [2] is “Medium H Medium M”. Further, in data set [3], the IC50 amounted to 85 nM. Further, the “Metabolic Stability H” value in data set [4] is recorded as “Medium H Medium M”.

As to `CC(NC(=O)N(C)C1CCN(C)CC1)c1ccc(-c2cncc(C=O)c2)c(Cl)c1Cl` (stereo not shown) [Compound H0642, 3-(1-(2,3-dichloro-4-(5-formylpyridin-3-yl)phenyl)ethyl)-1-methyl-1-(1-methylpiperidin-4-yl)urea], the EC50 in data set [1] is more than 30000 nM. The “Metabolic Stability M” value in data set [2] is reported as “Very Low”. In addition, the IC50 in data set [3] was 78 nM. Also, the “Metabolic Stability H” value in data set [4] is recorded as “Very low”.

On to `CN1CCC(N(C)C(=O)NC(C#N)c2ccc(-c3ccsc3)c(Cl)c2Cl)CC1` (stereo not shown) [Compound H0644, 3-(cyano(2,3-dichloro-4-(thiophen-3-yl)phenyl)methyl)-1-methyl-1-(1-methylpiperidin-4-yl)urea], for which, in data set [1], the EC50 was 28 nM and the Emax was 2822. For the same compound, the “Metabolic Stability M” value in data set [2] was “Medium H Medium M”. Besides, in data set [3], the IC50 worked out at 6 nM. For the same compound, the “Metabolic Stability H” value in data set [4] is recorded as “Medium H Medium M”.

Take `CC(NC(=O)N(C)C1CCN(C)CC1)c1ccc(-c2ccc(CO)s2)c(Cl)c1Cl` (stereo not shown) [Compound H0653, 3-(1-(2,3-dichloro-4-(5-(hydroxymethyl)thiophen-2-yl)phenyl)ethyl)-1-methyl-1-(1-methylpiperidin-4-yl)urea]: in data set [1], the EC50 was 9 nM and the Emax stood at 1815. The “Metabolic Stability M” value in data set [2] is given as “Medium H Medium M”. Also, the half-inhibitory concentration (IC50) in data set [3] was 4 nM. Also, the “Metabolic Stability H” value in data set [4] is reported as “Medium H Medium M”.

Regarding `CC(NC(=O)N(C)C1CCN(C)CC1)c1ccc(-c2ccc(C(F)F)s2)c(Cl)c1Cl` (stereo not shown) [Compound H0654, 3-(1-(2,3-dichloro-4-(5-(difluoromethyl)thiophen-2-yl)phenyl)ethyl)-1-methyl-1-(1-methylpiperidin-4-yl)urea], in data set [1], the EC50 came out at 10 nM and the Emax is on record as 2200. For the same compound, the “Metabolic Stability M” value in data set [2] is “Medium”. Besides, the IC50 in data set [3] is 6 nM. For the same compound, the “Metabolic Stability H” value in data set [4] is listed as “High”.

On to `CC(O)c1ccc(-c2ccc(C(C)NC(=O)N(C)C3CCN(C)CC3)c(Cl)c2Cl)s1` (stereo not shown) [Compound H0656, 3-(1-(2,3-dichloro-4-(5-(1-hydroxyethyl)thiophen-2-yl)phenyl)ethyl)-1-methyl-1-(1-methylpiperidin-4-yl)urea], for which, in data set [1], the EC50 came to 15 nM and the Emax amounted to 1350. Further, the “Metabolic Stability M” value in data set [2] is “Medium H Medium M”. Besides, the IC50 in data set [3] stood at 7 nM. In addition, the “Metabolic Stability H” value in data set [4] is “Medium H Medium M”.

Take `Cc1ccc(-c2ccc(C(C)NC(=O)N(C)C3CCN(C)CC3)c(Cl)c2Cl)o1` (stereo not shown) [Compound H0665, 3-(1-(2,3-dichloro-4-(5-methylfuran-2-yl)phenyl)ethyl)-1-methyl-1-(1-methylpiperidin-4-yl)urea]: the EC50 in data set [1] turned out to be 8 nM. Besides, in data set [2], the “Metabolic Stability M” value is listed as “Medium”. Moreover, the IC50 in data set [3] turned out to be 4 nM. In addition, in data set [4], the “Metabolic Stability H” value was “High”.

As to `CC(=O)C#Cc1ccc(C(C)NC(=O)N(C)C2CCN(C)CC2)c(Cl)c1Cl` (stereo not shown) [Compound H0701, 3-(1-(2,3-dichloro-4-(3-oxobut-1-yn-1-yl)phenyl)ethyl)-1-methyl-1-(1-methylpiperidin-4-yl)urea], the concentration giving a half-maximal response (EC50) in data set [1] was more than 30000 nM. Also, the “Metabolic Stability M” value in data set [2] is listed as “Low H Low M”. Besides, the IC50 in data set [3] turned out to be 20 nM. Moreover, the “Metabolic Stability H” value in data set [4] is on record as “Low H Low M”.

For the compound `CC(NC(=O)N(C)C1CCN(C)CC1)c1ccc(-c2cncc(C3=CCCC3)c2)c(Cl)c1Cl` (stereo not shown) [Compound H0705, 3-(1-(2,3-dichloro-4-(5-(cyclopent-1-en-1-yl)pyridin-3-yl)phenyl)ethyl)-1-methyl-1-(1-methylpiperidin-4-yl)urea], the EC50 in data set [1] is more than 30000 nM. Further, in data set [2], the “Metabolic Stability M” value is recorded as “High H High M”. In addition, in data set [3], the IC50 came out at 53 nM. The “Metabolic Stability H” value in data set [4] is listed as “High H High M”.

Turning to `CC(NC(=O)N(C)C1CCN(C)CC1)c1ccc(-c2cncc(-c3cncs3)c2)c(Cl)c1Cl` (stereo not shown) [Compound H0716, 3-(1-(2,3-dichloro-4-(5-(thiazol-5-yl)pyridin-3-yl)phenyl)ethyl)-1-methyl-1-(1-methylpiperidin-4-yl)urea], in data set [1], the EC50 is more than 30000 nM. Further, the “Metabolic Stability M” value in data set [2] is recorded as “Medium”. For the same compound, the IC50 in data set [3] is 15 nM. Moreover, in data set [4], the “Metabolic Stability H” value was “Low”.

Take `CN1CCC(N(C)C(=O)NC(CC2CC2)c2ccc(-c3cccnc3)c(Cl)c2Cl)CC1` (stereo not shown) [Compound H0720, 3-(2-cyclopropyl-1-(2,3-dichloro-4-(pyridin-3-yl)phenyl)ethyl)-1-methyl-1-(1-methylpiperidin-4-yl)urea]: in data set [1], the EC50 was more than 30000 nM. The “Metabolic Stability M” value in data set [2] is listed as “High”. The IC50 in data set [3] turned out to be 8 nM. Also, the “Metabolic Stability H” value in data set [4] is given as “Medium”.

Take `CN1CCC(N(C)C(=O)NC(CC2CC2)c2ccc(-c3cncc(N)c3)c(Cl)c2Cl)CC1` (stereo not shown) [Compound H0721, 3-(1-(4-(5-aminopyridin-3-yl)-2,3-dichlorophenyl)-2-cyclopropylethyl)-1-methyl-1-(1-methylpiperidin-4-yl)urea]: in data set [1], the EC50 is more than 30000 nM. Also, the “Metabolic Stability M” value in data set [2] is “High”. Further, the IC50 in data set [3] is 20 nM. Moreover, the “Metabolic Stability H” value in data set [4] was “Medium”.
